Assays:
[1] = tested on: K562 cells; test: MTT cytotoxicity assay, K562; format: cell-based; conditions: Homo sapiens, 48 h, mean ± SD
Protocol: (§1) Human umbilical vein endothelial cells (purchased from Life Technologies, Carlsbad, CA, USA) were cultured according to the manufacturer’s instructions in Medium 200 supplemented with Low Serum Growth Supplement. 1 × 10^4 cells were seeded on each well on a 96-well plate (Nunc, Roskilde, Denmark). The HeLa (human cervix carcinoma, cat. #93021013), CFPAC (human pancreatic adenocarcinoma, cat. #91112501), K562 (chronic myelogenous leukemia, cat. #89121407), HL-60 (acute myelogenous leukemia, cat. #98070106), and MOLT-4 (Human acute T lymphoblastic leukemia, cat. #85011413) cells were purchased from European Collection of Authenticated Cell Cultures (ECACC). They were cultured in an RPMI 1640 medium supplemented with antibiotics (streptomycin, penicillin) and 10% fetal calf serum (20% for HL60), in a 5% CO2-95% air atmosphere. 7 × 10^3 cells were seeded on each well on a 96-well plate (Nunc). 24 hours later the cells were exposed to the test compounds. The aliquots of stock solutions of the test compounds (freshly prepared in DMSO) were added to the cell cultures to yield final concentrations of 1, 10^−1, 10^−2, 10^−3, 10^−4, and 10^−5 mM. The concentration of DMSO in the cell culture medium was 1%. The IC50 value (the concentration of a test compound required to reduce the cell survival fraction to 50% of the control) was calculated from a dose-response curve and used as a measure of cellular sensitivity to a given treatment. The IC50 values are given as means (± standard deviation (SD)) from 2 independent experiments with 4 technical replicates. The cytotoxicity of all compounds was determined by the MTT (3-(4,5-dimethylthiazol-2-yl)-2,5-diphenyltetrazolium bromide) assay (Sigma, St. Louis, MO, USA). Briefly, after 24 h or 48 h of incubation with a given compound, the cells were treated with the MTT reagent and incubation was continued for 2 h. MTT-formazan crystals were dissolved in 20% SDS and 50% DMF at pH 4.7 and VIS light absorption was measured at 570 and 650 nm on a microplate reader FLUOstar Omega (BMG Labtech, Offenburg, Germany). As a control (100% viability), cells grown in the presence of 1% DMSO were used.

[2] = tested on: HeLa cells; test: MTT cytotoxicity assay, HeLa; format: cell-based; conditions: Homo sapiens, 48 h, mean ± SD
Protocol: as §1

[3] = biological target: T1, ABC50 (Homo sapiens, UniProt Q8NE71); test: ABC50 level by Western blotting in HeLa cells (PROTAC approach); format: cell-based; parameters: endogenous in cells; conditions: 96 h, 7 (30 µM), 8 (15 µM), 9 (30 µM)
Protocol: (§2) Cells were lysed in TBS buffer containing 1% Triton X-100 and Complete® protease inhibitor cocktail (Roche) for 15 min on ice with occasional vortexing. Insoluble material was centrifuged (12,000 rpm, 15 min, 4 °C) and supernatants were collected. Total protein concentration was measured with DC Protein Assay (Bio-Rad, Hercules, CA, USA). Cell lysates containing 30 µg of total protein were mixed with Laemli buffer supplemented with SDS and β-mercaptoethanol, denatured (10 min, 95 °C) and subjected to sodium dodecyl sulfate polyacrylamide gel electrophoresis (SDS-PAGE) electrophoresis (4% stacking and 10% resolving gels). Resolved proteins were electrotransferred (semi-dry, 90 min, 1.5 mA/cm^2) to a 0.45 µm nitrocellulose membrane (Thermo Scientific, Waltham, MA, USA). Membranes were blocked for 2 hours in TBST buffer (20 mM Tris-HCl pH 7.5, 0.9% NaCl, 0.1% Tween 20) containing 5% BSA (BioShop, Burlington, ON, Canada) and probed with primary antibodies (overnight at 4 °C) diluted in TBST buffer with 0.5% BSA. Tubulin served as a loading control for IB experiments. Anti IKZF3 (rabbit monoclonal, dilution 1:500), anti IKZF1 (rabbit polyclonal, dilution 1:500) were from Abcam. Anti IRF4 (rabbit polyclonal, dilution 1:500) were from Cell Signaling Technology. Anti α-tubulin (mouse monoclonal IgG, 1:1000) was from Sigma Aldrich. Anti ABC50 antibodies (mouse monoclonal ABC5H06, dilution 1:100) was from Abcam. After extensive washing with TBST buffer, membranes were probed with secondary goat anti-rabbit or goat anti-mouse HRP-conjugated IgG (1:5000 in TBST, Santa Cruz Biotech, Dallas, TX, USA) for 45 min at room temperature. […] Protein bands intensities were analysed using Image Quant (version 5.0, GE Healthcare Life Sciences, Pittsburgh, PA, USA).
(§3) ABC50 was identified as the target of the test dicarboximides in the pull-down experiments. […] It must be noted that 7, 8 and 9 were evaluated as mixtures of enantiomers. K562 and HeLa cells were incubated with chimeras 7 (30 µM), 8 (15 µM) and 9 (30 µM) for 96 h and subsequently the level of ABC50 was determined by Western blotting. […]

[4] = tested on: MOLT-4 cells; test: MTT cytotoxicity assay, MOLT-4; format: cell-based; conditions: Homo sapiens, 48 h, mean ± SD
Protocol: as §1

[5] = biological target: T1, ABC50; test: ABC50 level by Western blotting in K562 cells (PROTAC approach); format: cell-based; parameters: endogenous in cells; host or cells: K562 cell lysate; conditions: K562, 96 h, 7 (30 µM), 8 (15 µM), 9 (30 µM)
Protocol: as §2, §3

[6] = tested on: HUVEC (human umbilical vein endothelial cells); test: MTT cytotoxicity assay, HUVEC; format: cell-based; conditions: 48 h, mean ± SD
Protocol: as §1

T1 sequence (Q8NE71 whole entry): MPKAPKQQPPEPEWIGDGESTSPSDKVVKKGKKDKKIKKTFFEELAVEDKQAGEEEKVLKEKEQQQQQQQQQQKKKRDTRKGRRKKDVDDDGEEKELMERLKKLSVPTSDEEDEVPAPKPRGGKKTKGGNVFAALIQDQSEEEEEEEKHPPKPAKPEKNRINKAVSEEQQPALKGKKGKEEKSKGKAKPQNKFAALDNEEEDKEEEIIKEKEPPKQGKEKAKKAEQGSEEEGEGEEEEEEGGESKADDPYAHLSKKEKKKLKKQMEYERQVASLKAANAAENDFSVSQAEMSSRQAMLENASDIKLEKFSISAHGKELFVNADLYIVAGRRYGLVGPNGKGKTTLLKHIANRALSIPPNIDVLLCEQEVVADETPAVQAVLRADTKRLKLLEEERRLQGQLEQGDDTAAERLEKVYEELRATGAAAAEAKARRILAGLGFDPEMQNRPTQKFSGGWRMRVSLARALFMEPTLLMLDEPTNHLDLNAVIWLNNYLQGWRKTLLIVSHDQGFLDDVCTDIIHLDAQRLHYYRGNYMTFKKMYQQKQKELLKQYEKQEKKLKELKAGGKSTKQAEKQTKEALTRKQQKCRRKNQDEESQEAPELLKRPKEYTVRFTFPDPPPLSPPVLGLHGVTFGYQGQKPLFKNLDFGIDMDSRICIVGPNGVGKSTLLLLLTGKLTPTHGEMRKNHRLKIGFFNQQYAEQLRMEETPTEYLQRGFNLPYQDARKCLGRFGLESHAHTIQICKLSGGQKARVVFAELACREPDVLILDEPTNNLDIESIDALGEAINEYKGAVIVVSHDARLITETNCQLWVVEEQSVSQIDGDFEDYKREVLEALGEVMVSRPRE

Compound | IC50 [1] [µM] | IC50 [2] [µM] | melting point [°C] | level of ABC50 (Western blotting) [3] | IC50 [4] [µM] | level of ABC50 (Western blotting) [5] | IC50 [6] [µM]
CCC12C(=O)C(CC)(C(c3ccccc3)=C1c1ccccc1)C1C(=O)N(C3CCC(=O)NC3=O)C(=O)C12 (stereo not drawn) [Compound 8, 4-(2,6-dioxopiperidin-3-yl)-1,7-diethyl-8,9-diphenyl-4-azatricyclo[5.2.1.0^2,6]dec-8-ene-3,5,10-trione] | 25 | > 200 | 232 to 234 | significantly downregulated | 18 | significantly reduced | 65
CC12C(=O)C(C)(C(c3ccccc3)=C1c1ccccc1)C1C(=O)N(C3CCC(=O)NC3=O)C(=O)C12 (stereo not drawn) [Compound 7, 4-(2,6-dioxopiperidin-3-yl)-1,7-dimethyl-8,9-diphenyl-4-azatricyclo[5.2.1.0^2,6]dec-8-ene-3,5,10-trione] | 170 | 180 | 217 to 218 | significantly downregulated | 150 | significantly reduced | 200
O=C1CCC(N2C(=O)C3C(C2=O)C2(c4ccccc4)C(=O)C3(c3ccccc3)C(c3ccccc3)=C2c2ccccc2)C(=O)N1 (stereo not drawn) [Compound 9, 4-(2,6-dioxopiperidin-3-yl)-1,7,8,9-tetraphenyl-4-azatricyclo[5.2.1.0^2,6]dec-8-ene-3,5,10-trione] | > 200 | > 200 | 230 to 232 | didn’t have such pronounced effect | > 200 | significantly reduced | > 200
